Test results as given in ChEMBL document CHEMBL1201862, “PubChem BioAssay data set” (2004).
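Each compound was tested at five concentrations against cells in 96-well plates for 48 hours. Here, GI50 denotes the concentration required for 50% inhibition of growth.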 Calls of active or inactive are those of the source. Rule as the data show it: active = GI50 up to about 1.1 µM and inactive = higher.

What was measured:
Assay in all cases: NCI-60 cell line screen, 48 h
[1] = test system: 786-0
[2] = test system: A498
[3] = test system: A549
[4] = test system: ACHN
[5] = test system: BT-549
[6] = test system: CAKI-1
[7] = test system: CCRF-CEM
[8] = test system: COLO 205
[9] = test system: DU-145
[10] = test system: EKVX
[11] = test system: HCC 2998
[12] = test system: HCT-116
[13] = test system: HCT-15
[14] = test system: HL-60
[15] = test system: HOP-62
[16] = test system: HOP-92
[17] = test system: HT-29
[18] = test system: Hs-578T
[19] = test system: IGROV-1
[20] = test system: K562
[21] = test system: KM12
[22] = test system: LOX IMVI
[23] = test system: M14
[24] = test system: MCF7
[25] = test system: MDA-MB-231
[26] = test system: MDA-MB-435
[27] = test system: MDA-N
[28] = test system: MOLT-4
[29] = test system: Malme-3M
[30] = test system: NCI-H226
[31] = test system: NCI-H460
[32] = test system: NCI-H522
[33] = test system: NCI/ADR-RES
[34] = test system: OVCAR-3
[35] = test system: OVCAR-4
[36] = test system: OVCAR-5
[37] = test system: OVCAR-8
[38] = test system: PC-3
[39] = test system: RPMI-8226
[40] = test system: RXF 393
[41] = test system: SF-268
[42] = test system: SF-295
[43] = test system: SF-539
[44] = test system: SK-MEL-28
[45] = test system: SK-MEL-2
[46] = test system: SK-MEL-5
[47] = test system: SK-OV-3
[48] = test system: SN12C
[49] = test system: SNB-19
[50] = test system: SNB-75
[51] = test system: SR
[52] = test system: SW-620
[53] = test system: T47D
[54] = test system: TK-10
[55] = test system: U-251
[56] = test system: UACC-257
[57] = test system: UACC-62
[58] = test system: UO-31
[59] = test system: NCI-H23

COc1oc(C(=O)NC2CCCCC2)c(-c2ccc(Cl)cc2)c1S(=O)(=O)c1ccccc1
GI50 [1]: 1.99 µM (inactive)
GI50 [2]: 2.15 µM (inactive)
GI50 [3]: 23.7 µM (inactive)
GI50 [4]: 31 µM (inactive)
GI50 [5]: 5.55 µM (inactive)
GI50 [6]: 3.37 µM (inactive)
GI50 [7]: 2.2 µM (inactive)
GI50 [8]: 15.5 µM (inactive)
GI50 [9]: 18.3 µM (inactive)
GI50 [10]: 9.98 µM (inactive)
GI50 [11]: 19 µM (inactive)
GI50 [12]: 33.3 µM (inactive)
GI50 [13]: 44.9 µM
GI50 [14]: 2.4 µM (inactive)
GI50 [15]: 6.27 µM (inactive)
GI50 [16]: 1.5 µM (inactive)
GI50 [17]: 2.26 µM (inactive)
GI50 [18]: 16.2 µM (inactive)
GI50 [19]: 1.82 µM (inactive)
GI50 [20]: 12.3 µM (inactive)
GI50 [21]: 5.55 µM (inactive)
GI50 [22]: 2.78 µM (inactive)
GI50 [23]: 26.9 µM (inactive)
GI50 [24]: 36.1 µM (inactive)
GI50 [25]: 9.51 µM (inactive)
GI50 [26]: 9.86 µM (inactive)
GI50 [27]: 64 µM (inactive)
GI50 [28]: 6.79 µM (inactive)
GI50 [29]: 11.7 µM (inactive)
GI50 [30]: 52.2 µM (inactive)
GI50 [31]: 10.5 µM (inactive)
GI50 [32]: 1.34 µM (inactive)
GI50 [33]: 2.76 µM (inactive)
GI50 [34]: 1.89 µM (inactive)
GI50 [35]: 1.7 µM (inactive)
GI50 [36]: 23.4 µM (inactive)
GI50 [37]: 6.4 µM (inactive)
GI50 [38]: 10.7 µM (inactive)
GI50 [39]: 2.15 µM (inactive)
GI50 [40]: 3.02 µM (inactive)
GI50 [41]: 3.46 µM (inactive)
GI50 [42]: 23.4 µM (inactive)
GI50 [43]: 6.58 µM (inactive)
GI50 [44]: 49.3 µM (inactive)
GI50 [45]: 13.4 µM (inactive)
GI50 [46]: 28.1 µM (inactive)
GI50 [47]: 25.6 µM (inactive)
GI50 [48]: 20.1 µM (inactive)
GI50 [49]: 99.3 µM (inactive)
GI50 [50]: 20.8 µM (inactive)
GI50 [51]: 5.51 µM (inactive)
GI50 [52]: 38.2 µM (inactive)
GI50 [53]: 37.7 µM (inactive)
GI50 [54]: > 53.1 µM (inactive)
GI50 [55]: 2.64 µM (inactive)
GI50 [56]: 11.8 µM (inactive)
GI50 [57]: 17.1 µM (inactive)
GI50 [58]: 1.82 µM (inactive)

C[C@@H](NC(=O)Cn1c(Cl)nc2ccccc21)c1ccccc1
GI50 [1]: > 100 µM (inactive)
GI50 [2]: > 100 µM (inactive)
GI50 [3]: > 100 µM (inactive)
GI50 [4]: > 100 µM (inactive)
GI50 [5]: > 100 µM (inactive)
GI50 [6]: > 100 µM (inactive)
GI50 [7]: > 100 µM (inactive)
GI50 [8]: > 100 µM (inactive)
GI50 [9]: > 100 µM (inactive)
GI50 [10]: 26.7 µM (inactive)
GI50 [11]: > 100 µM (inactive)
GI50 [12]: > 100 µM (inactive)
GI50 [13]: > 100 µM
GI50 [14]: > 100 µM (inactive)
GI50 [15]: > 100 µM (inactive)
GI50 [16]: > 100 µM (inactive)
GI50 [17]: > 100 µM (inactive)
GI50 [18]: 51.6 µM (inactive)
GI50 [20]: > 100 µM (inactive)
GI50 [21]: > 100 µM (inactive)
GI50 [22]: 75.7 µM (inactive)
GI50 [23]: > 100 µM (inactive)
GI50 [24]: > 100 µM (inactive)
GI50 [25]: > 100 µM (inactive)
GI50 [26]: > 100 µM (inactive)
GI50 [27]: > 100 µM (inactive)
GI50 [28]: > 100 µM (inactive)
GI50 [29]: > 100 µM (inactive)
GI50 [30]: > 100 µM (inactive)
GI50 [59]: 46.2 µM (inactive)
GI50 [31]: > 100 µM (inactive)
GI50 [32]: 38.2 µM (inactive)
GI50 [33]: 33 µM (inactive)
GI50 [34]: > 100 µM (inactive)
GI50 [35]: > 100 µM (inactive)
GI50 [36]: > 100 µM (inactive)
GI50 [37]: > 100 µM (inactive)
GI50 [38]: > 100 µM (inactive)
GI50 [39]: > 100 µM (inactive)
GI50 [40]: > 100 µM (inactive)
GI50 [41]: > 100 µM (inactive)
GI50 [42]: > 100 µM (inactive)
GI50 [43]: > 100 µM (inactive)
GI50 [44]: > 100 µM (inactive)
GI50 [45]: > 100 µM (inactive)
GI50 [46]: 17.5 µM (inactive)
GI50 [47]: > 100 µM (inactive)
GI50 [49]: > 100 µM (inactive)
GI50 [50]: > 100 µM (inactive)
GI50 [51]: > 100 µM (inactive)
GI50 [52]: > 100 µM (inactive)
GI50 [53]: 36.2 µM (inactive)
GI50 [54]: > 100 µM (inactive)
GI50 [55]: > 100 µM (inactive)
GI50 [56]: > 100 µM (inactive)
GI50 [57]: > 100 µM (inactive)
GI50 [58]: > 100 µM (inactive)
